Test results taken from patent publication US20080009418A1, “Selective Inhibitors” (Alchemia LTD., priority 2004, published 2008).

Legend:
[1] = target: T1, Human δ-opioid (DOP) (Homo sapiens, UniProt P41143); experiment: Radioligand binding, human δ-opioid (DOP) membranes, FlashPlate, [3H]-Bremazocine; settings: compound at 10 μM; [3H]-Bremazocine
T1 construct: purchased Perkin Elmer Biosignal
Outline: (§1)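 Cloned human receptor membranes were coated onto FlashPlate wells and incubated with radioligand and compound (added from a 0.5 mM DMSO daughter plate) for 1 hour at room temperature in the dark. Scintillation counting gave percent inhibition, with DMSO defining total and reference ligand defining non-specific binding.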

[2] = target: T2, Human κ-Opioid (KOP) (Homo sapiens, UniProt P41145); experiment: Radioligand binding, human κ-opioid (KOP) membranes, filtration, [3H]-Diprenorphine; settings: compound at 10 μM; [3H]-Diprenorphine
T2 construct: purchased Perkin Elmer Biosignal
Outline: (§2)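 Filtration binding on cloned human receptor membranes (1 Unit/well), [125I]-Substance P for NK1 and [3H]-Diprenorphine for KOP, 1 h at room temperature. Filters PEI-presoaked, washed with cold 50 mM Tris-HCl pH 7.4, counted by scintillation; percent inhibition calculated, reference ligand defining non-specific binding.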

[3] = target: T3, Human Melanocortin (MC3) (Homo sapiens, UniProt P41968); experiment: Radioligand binding, human melanocortin MC3 membranes, FlashPlate, [125I]-NDP-αMSH; settings: compound at 10 μM, [125I]-NDP-αMSH
T3 construct: purchased Perkin Elmer Biosignal
Outline: as §1

[4] = target: T4, Human Melanocortin (MC4) (Homo sapiens, UniProt P32245); experiment: Radioligand binding, human melanocortin MC4 membranes, FlashPlate, [125I]-NDP-αMSH; settings: compound at 10 μM; [125I]-NDP-αMSH
T4 construct: purchased Perkin Elmer Biosignal
Outline: as §1

[5] = target: T5, Human melanocortin (MC5) (Homo sapiens, UniProt P33032); experiment: Radioligand binding, human melanocortin MC5 membranes, FlashPlate, [125I]-NDP-αMSH; settings: compound at 10 μM; [125I]-NDP-αMSH
T5 construct: purchased Perkin Elmer Biosignal
Outline: as §1

[6] = target: T6, Human melanin-concentrating hormone (MCH1) (Homo sapiens, UniProt Q99705); experiment: Radioligand binding, human melanin-concentrating hormone MCH1 membranes, FlashPlate, [125I]-S36057; settings: compound at 10 μM; [125I]-S36057
T6 construct: purchased Perkin Elmer Biosignal
Outline: as §1

[7] = target: T7, Human μ-opioid (MOP) (Homo sapiens, UniProt P35372); experiment: Radioligand binding, human μ-opioid (MOP) membranes, FlashPlate, [3H]-Naloxone; settings: compound at 10 μM, [3H]-Naloxone
T7 construct: purchased Perkin Elmer Biosignal
Outline: as §1

[8] = target: T8, Human neurokinin (NK1) (Homo sapiens, UniProt P25103); experiment: Radioligand binding, human neurokinin NK1 membranes, filtration, [125I]-Substance P; settings: compound at 10 μM; [125I]-Substance P
T8 construct: purchased Perkin Elmer Biosignal
Outline: as §2

[9] = target: T9, Human neuropeptide Y (NPY-Y1) (Homo sapiens, UniProt P25929); experiment: Radioligand binding, human neuropeptide Y NPY-Y1 membranes, FlashPlate, [125I]-PYY; settings: compound at 10 μM; [125I]-PYY
T9 construct: purchased Perkin Elmer Biosignal
T9 sequence (P25929 1-384): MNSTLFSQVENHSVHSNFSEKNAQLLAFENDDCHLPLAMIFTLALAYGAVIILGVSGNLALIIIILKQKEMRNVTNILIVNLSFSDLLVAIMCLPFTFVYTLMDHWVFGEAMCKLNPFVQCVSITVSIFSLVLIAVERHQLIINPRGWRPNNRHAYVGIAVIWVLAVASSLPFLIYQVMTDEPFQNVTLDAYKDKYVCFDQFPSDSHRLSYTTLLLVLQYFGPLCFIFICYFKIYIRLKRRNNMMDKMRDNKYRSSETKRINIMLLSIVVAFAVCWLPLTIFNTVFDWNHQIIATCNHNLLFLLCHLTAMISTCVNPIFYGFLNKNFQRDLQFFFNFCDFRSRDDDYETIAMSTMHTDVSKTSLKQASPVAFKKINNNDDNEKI
Outline: as §1

[10] = target: T10, Human opioid (ORL1) (Homo sapiens, UniProt P41146); experiment: Radioligand binding, human opioid ORL1 membranes, FlashPlate, [125I]-Nociceptin; settings: compound at 10 μM, [125I]-Nociceptin
T10 construct: purchased Perkin Elmer Biosignal
Outline: as §1

[11] = target: T11, Mouse urotensin (mUR2) (Mus musculus, UniProt Q8VIH9); experiment: Radioligand binding, mouse urotensin mUR2 membranes, FlashPlate, [125I]-Urotensin II; settings: compound at 10 μM; [125I]-Urotensin II
T11 construct: purchased Perkin Elmer Biosignal
T11 sequence (Q8VIH9 1-385): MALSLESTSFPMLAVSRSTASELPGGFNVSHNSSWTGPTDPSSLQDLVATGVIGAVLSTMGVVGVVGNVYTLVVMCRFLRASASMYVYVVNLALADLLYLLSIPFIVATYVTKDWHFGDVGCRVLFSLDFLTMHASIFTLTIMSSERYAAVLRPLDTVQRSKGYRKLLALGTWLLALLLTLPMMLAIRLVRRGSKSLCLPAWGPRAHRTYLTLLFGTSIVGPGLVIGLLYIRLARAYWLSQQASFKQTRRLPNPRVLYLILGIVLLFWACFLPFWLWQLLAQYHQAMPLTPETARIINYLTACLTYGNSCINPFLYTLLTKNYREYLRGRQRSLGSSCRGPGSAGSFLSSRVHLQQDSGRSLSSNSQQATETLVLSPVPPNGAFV
Outline: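 Cloned mouse urotensin (mUR2) receptor membranes from Perkin Elmer Biosignal were immobilized in FlashPlate microplates using a proprietary coating. Each well got 19.5 μl buffer, then 0.5 μl of DMSO, reference ligand, or compound. Adding 5 μl of [125I]-Urotensin II, diluted to 5× final concentration in binding buffer, started binding. Plates were sealed with TopSeal-A and incubated 1 hour at room temperature in the dark. Wells were counted for 30 seconds each on a TopCount after a 60-second delay, and percentage inhibition was calculated.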

T8 sequence (P25103 whole entry): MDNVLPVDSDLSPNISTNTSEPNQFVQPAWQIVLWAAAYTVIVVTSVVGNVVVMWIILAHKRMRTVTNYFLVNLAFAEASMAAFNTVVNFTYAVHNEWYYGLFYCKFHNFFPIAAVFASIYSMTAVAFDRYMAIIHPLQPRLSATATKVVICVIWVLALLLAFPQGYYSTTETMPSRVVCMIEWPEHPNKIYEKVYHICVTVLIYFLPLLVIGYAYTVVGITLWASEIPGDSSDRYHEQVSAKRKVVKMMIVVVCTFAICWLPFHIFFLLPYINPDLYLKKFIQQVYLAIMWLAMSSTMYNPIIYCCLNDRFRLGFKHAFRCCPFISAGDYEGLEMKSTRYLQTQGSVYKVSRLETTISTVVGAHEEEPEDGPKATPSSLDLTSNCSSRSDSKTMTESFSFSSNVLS
T10 sequence (P41146 whole entry): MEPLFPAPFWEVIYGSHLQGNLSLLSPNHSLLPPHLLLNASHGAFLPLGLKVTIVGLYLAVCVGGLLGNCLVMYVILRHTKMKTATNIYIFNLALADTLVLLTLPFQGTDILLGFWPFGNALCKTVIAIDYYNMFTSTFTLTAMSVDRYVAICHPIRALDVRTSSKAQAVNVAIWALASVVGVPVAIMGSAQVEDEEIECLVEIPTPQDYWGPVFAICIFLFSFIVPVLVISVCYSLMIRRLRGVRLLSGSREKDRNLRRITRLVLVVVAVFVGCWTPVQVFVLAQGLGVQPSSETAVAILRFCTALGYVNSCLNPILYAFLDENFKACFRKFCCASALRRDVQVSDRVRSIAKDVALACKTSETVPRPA
T2 sequence (P41145 whole entry): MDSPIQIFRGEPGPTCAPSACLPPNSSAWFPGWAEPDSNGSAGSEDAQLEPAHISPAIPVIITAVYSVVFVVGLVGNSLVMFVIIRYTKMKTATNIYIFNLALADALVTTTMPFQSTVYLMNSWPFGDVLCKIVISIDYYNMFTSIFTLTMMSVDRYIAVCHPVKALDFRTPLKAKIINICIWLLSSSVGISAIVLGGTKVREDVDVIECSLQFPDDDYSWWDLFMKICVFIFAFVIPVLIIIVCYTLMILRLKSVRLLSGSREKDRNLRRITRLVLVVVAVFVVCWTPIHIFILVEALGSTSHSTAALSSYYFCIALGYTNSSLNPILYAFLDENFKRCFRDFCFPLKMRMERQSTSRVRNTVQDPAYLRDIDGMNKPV
T3 sequence (P41968 whole entry): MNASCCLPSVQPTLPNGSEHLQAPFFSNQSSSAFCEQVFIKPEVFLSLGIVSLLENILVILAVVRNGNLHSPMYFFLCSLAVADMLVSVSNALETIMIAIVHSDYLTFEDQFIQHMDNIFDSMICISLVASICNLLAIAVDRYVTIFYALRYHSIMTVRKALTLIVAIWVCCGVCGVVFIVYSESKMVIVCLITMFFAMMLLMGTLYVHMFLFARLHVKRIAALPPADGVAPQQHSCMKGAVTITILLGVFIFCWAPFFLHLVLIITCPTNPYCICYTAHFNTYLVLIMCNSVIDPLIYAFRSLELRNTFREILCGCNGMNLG
T5 sequence (P33032 whole entry): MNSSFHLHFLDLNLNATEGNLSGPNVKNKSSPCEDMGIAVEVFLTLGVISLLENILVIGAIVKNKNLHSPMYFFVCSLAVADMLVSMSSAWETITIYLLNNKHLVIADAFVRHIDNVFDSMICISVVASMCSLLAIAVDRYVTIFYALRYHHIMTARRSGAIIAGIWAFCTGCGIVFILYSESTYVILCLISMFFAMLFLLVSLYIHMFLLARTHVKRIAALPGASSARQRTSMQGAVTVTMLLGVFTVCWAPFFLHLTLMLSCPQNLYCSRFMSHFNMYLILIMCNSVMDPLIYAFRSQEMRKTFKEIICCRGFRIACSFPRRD
T7 sequence (P35372 whole entry): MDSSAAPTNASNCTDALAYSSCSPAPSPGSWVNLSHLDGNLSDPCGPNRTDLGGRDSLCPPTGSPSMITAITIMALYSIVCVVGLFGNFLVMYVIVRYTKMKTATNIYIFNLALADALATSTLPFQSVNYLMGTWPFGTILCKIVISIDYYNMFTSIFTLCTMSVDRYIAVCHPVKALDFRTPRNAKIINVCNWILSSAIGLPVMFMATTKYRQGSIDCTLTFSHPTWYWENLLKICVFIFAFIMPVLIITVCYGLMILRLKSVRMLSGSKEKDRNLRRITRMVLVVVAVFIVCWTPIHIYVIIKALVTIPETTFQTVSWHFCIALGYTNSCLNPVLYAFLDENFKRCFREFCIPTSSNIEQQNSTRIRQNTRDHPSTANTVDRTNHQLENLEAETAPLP
T6 sequence (Q99705 whole entry): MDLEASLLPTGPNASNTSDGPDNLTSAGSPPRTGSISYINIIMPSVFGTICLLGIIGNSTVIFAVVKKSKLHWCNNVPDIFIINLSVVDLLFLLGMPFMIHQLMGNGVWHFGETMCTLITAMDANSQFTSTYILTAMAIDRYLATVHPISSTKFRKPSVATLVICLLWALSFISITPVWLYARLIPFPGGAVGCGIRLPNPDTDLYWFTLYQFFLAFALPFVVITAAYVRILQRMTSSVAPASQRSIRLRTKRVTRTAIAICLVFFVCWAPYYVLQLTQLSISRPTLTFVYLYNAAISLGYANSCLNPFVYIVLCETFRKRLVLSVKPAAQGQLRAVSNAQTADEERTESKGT
T1 sequence (P41143 whole entry): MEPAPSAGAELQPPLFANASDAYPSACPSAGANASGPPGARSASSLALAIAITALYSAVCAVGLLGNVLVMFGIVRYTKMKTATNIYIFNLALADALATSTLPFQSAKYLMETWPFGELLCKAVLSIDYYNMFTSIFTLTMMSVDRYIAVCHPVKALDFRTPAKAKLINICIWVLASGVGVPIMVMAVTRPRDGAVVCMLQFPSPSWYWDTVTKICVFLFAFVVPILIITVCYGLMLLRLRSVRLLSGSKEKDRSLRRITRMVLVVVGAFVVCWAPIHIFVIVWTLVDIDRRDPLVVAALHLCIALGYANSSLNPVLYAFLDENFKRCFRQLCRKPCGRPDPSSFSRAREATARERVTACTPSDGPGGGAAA
T4 sequence (P32245 whole entry): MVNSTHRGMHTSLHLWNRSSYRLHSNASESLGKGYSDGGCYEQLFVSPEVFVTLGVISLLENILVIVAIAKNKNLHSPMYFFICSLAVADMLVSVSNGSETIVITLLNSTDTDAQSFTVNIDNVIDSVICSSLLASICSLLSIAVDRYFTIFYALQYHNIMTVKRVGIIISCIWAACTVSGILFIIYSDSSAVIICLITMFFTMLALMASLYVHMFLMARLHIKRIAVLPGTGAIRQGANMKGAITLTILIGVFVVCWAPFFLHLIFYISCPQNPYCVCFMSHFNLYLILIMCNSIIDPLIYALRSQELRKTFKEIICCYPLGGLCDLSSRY

| Compound | A1: inhibition of radioligand binding, human δ-opioid (DOP) [1] | A2: inhibition of radioligand binding, human κ-opioid (KOP) [2] | A3: inhibition of radioligand binding, human melanocortin (MC3) [3] | A4: inhibition of radioligand binding, human melanocortin (MC4) [4] | A5: inhibition of radioligand binding, human melanocortin (MC5) [5] | A6: inhibition of radioligand binding, human melanin-concentrating hormone (MCH1) [6] | A7: inhibition of radioligand binding, human μ-opioid (MOP) [7] | A8: inhibition of radioligand binding, human neurokinin (NK1) [8] | A9: inhibition of radioligand binding, human neuropeptide Y (NPY-Y1) [9] | A10: inhibition of radioligand binding, human opioid (ORL1) [10] | A11: inhibition of radioligand binding, mouse urotensin (mUR2) [11] | A7: inhibition of radioligand binding, human μ-opioid (MOP) ([7]; 10 µM) | A10: inhibition of radioligand binding, human opioid (ORL1) ([10]; 10 µM) | further results |
| --- | --- | --- | --- | --- | --- | --- | --- | --- | --- | --- | --- | --- | --- | --- |
| COC[C@H]1OC(OCc2cccc(O)c2)[C@H](NC(=O)CNC(=N)N)[C@@H](OCc2ccc(-c3ccccc3)cc2)[C@@H]1O (stereo partly drawn) [compound 141] |  |  |  |  |  |  |  |  |  |  |  |  |  | A1 radioligand binding, percentage inhibition [1]: − (“−” indicates less than 50% inhibition at 10 μM); A2 radioligand binding, percentage inhibition [2]: − (“−” indicates less than 50% inhibition at 10 μM); A3 radioligand binding, percentage inhibition [3]: − (“−” indicates less than 50% inhibition at 10 μM); A4 radioligand binding, percentage inhibition [4]: − (“−” indicates less than 50% inhibition at 10 μM); A5 radioligand binding, percentage inhibition [5]: + (“+” indicates greater than 50% inhibition at 10 μM); A6 radioligand binding, percentage inhibition [6]: + (“+” indicates greater than 50% inhibition at 10 μM); A7 radioligand binding, percentage inhibition [7]: − (“−” indicates less than 50% inhibition at 10 μM); A8 radioligand binding, percentage inhibition [8]: − (“−” indicates less than 50% inhibition at 10 μM); A9 radioligand binding, percentage inhibition [9]: − (“−” indicates less than 50% inhibition at 10 μM); A10 radioligand binding, percentage inhibition [10]: − (“−” indicates less than 50% inhibition at 10 μM); A11 radioligand binding, percentage inhibition [11]: − (“−” indicates less than 50% inhibition at 10 μM) |
| CSC1OC(COCc2ccc(Cl)cc2)C(O)C(OCc2ccc3ccccc3c2)C1NC(=O)CCN (stereo not drawn) [compound 308] | − (“−” indicates less than 50% inhibition at 10 μM) | − (“−” indicates less than 50% inhibition at 10 μM) | − (“−” indicates less than 50% inhibition at 10 μM) | − (“−” indicates less than 50% inhibition at 10 μM) | − (“−” indicates less than 50% inhibition at 10 μM) | − (“−” indicates less than 50% inhibition at 10 μM) | − (“−” indicates less than 50% inhibition at 10 μM) | + (“+” indicates greater than 50% inhibition at 10 μM) | − (“−” indicates less than 50% inhibition at 10 μM) | − (“−” indicates less than 50% inhibition at 10 μM) | − (“−” indicates less than 50% inhibition at 10 μM) |  |  |  |
| CSC1OC(COCc2cccc(N)c2)C(O)C(OCc2ccccc2)C1NC(=O)c1c[nH]c2ccccc12 (stereo not drawn) [compound 326] | − (“−” indicates less than 50% inhibition at 10 μM) | − (“−” indicates less than 50% inhibition at 10 μM) | − (“−” indicates less than 50% inhibition at 10 μM) | − (“−” indicates less than 50% inhibition at 10 μM) | − (“−” indicates less than 50% inhibition at 10 μM) | − (“−” indicates less than 50% inhibition at 10 μM) | − (“−” indicates less than 50% inhibition at 10 μM) | + (“+” indicates greater than 50% inhibition at 10 μM) | − (“−” indicates less than 50% inhibition at 10 μM) | − (“−” indicates less than 50% inhibition at 10 μM) | − (“−” indicates less than 50% inhibition at 10 μM) |  |  |  |
| COC[C@H]1OC(OCc2ccc3ccccc3c2)[C@H](NC(=O)CCCN)[C@@H](OCc2ccc3ccccc3c2)[C@@H]1O (stereo partly drawn) [compound 338] | − (“−” indicates less than 50% inhibition at 10 μM) | − (“−” indicates less than 50% inhibition at 10 μM) | − (“−” indicates less than 50% inhibition at 10 μM) | − (“−” indicates less than 50% inhibition at 10 μM) | − (“−” indicates less than 50% inhibition at 10 μM) | − (“−” indicates less than 50% inhibition at 10 μM) | + (“+” indicates greater than 50% inhibition at 10 μM) | + (“+” indicates greater than 50% inhibition at 10 μM) | − (“−” indicates less than 50% inhibition at 10 μM) | − (“−” indicates less than 50% inhibition at 10 μM) | − (“−” indicates less than 50% inhibition at 10 μM) |  |  |  |
| NCCCC(=O)NC1C(OCc2ccc(Cl)cc2)OC(COCc2ccc(Cl)cc2)C(O)C1OCc1ccccc1 (single isomer, unassigned) [compound 506] | − (“−” indicates less than 50% inhibition at 10 μM) | − (“−” indicates less than 50% inhibition at 10 μM) | − (“−” indicates less than 50% inhibition at 10 μM) | − (“−” indicates less than 50% inhibition at 10 μM) | + (“+” indicates greater than 50% inhibition at 10 μM) | − (“−” indicates less than 50% inhibition at 10 μM) |  | + (“+” indicates greater than 50% inhibition at 10 μM) | − (“−” indicates less than 50% inhibition at 10 μM) |  | − (“−” indicates less than 50% inhibition at 10 μM) | − (“−” indicates less than 50% inhibition at 10 μM) | + (“+” indicates greater than 50% inhibition at 10 μM) |  |
| N=C(N)NCC(=O)NC1C(OCc2ccc(Cl)cc2)OC(COCc2ccccc2)C(O)C1OCc1ccc(Cl)cc1 (single isomer, unassigned) [compound 510] | − (“−” indicates less than 50% inhibition at 10 μM) | − (“−” indicates less than 50% inhibition at 10 μM) |  | + (“+” indicates greater than 50% inhibition at 10 μM) | + (“+” indicates greater than 50% inhibition at 10 μM) | + (“+” indicates greater than 50% inhibition at 10 μM) |  | + (“+” indicates greater than 50% inhibition at 10 μM) | − (“−” indicates less than 50% inhibition at 10 μM) |  | − (“−” indicates less than 50% inhibition at 10 μM) | − (“−” indicates less than 50% inhibition at 10 μM) | + (“+” indicates greater than 50% inhibition at 10 μM) | A3: inhibition of radioligand binding, human melanocortin (MC3) ([3]; 10 µM): + (“+” indicates greater than 50% inhibition at 10 μM) |
